Values after ≈ are worked out from the molar mass of the structure shown. Like-named read-outs stand apart in the source and are kept apart here.
How the values were obtained:
M. tuberculosis (H37Rv) [1] = test: M. tuberculosis H37Rv resazurin reduction microplate MIC assay, hypoxic conditions (0.1% oxygen); format: cell-based, Mycobacterium tuberculosis; settings: H37Rv, hypoxia (0.1% oxygen); for MIC: Mycobacterium tuberculosis, read-out: antibacterial MIC M. tuberculosis hypoxia
[2] = Plasma protein binding, ultrafiltration method; format: in vitro ADME; settings: human plasma, % bound; for fraction unbound at 0.5 h, 5 µM: read-out: PPB (%) (converted)
[3] = tested on: L. donovani MHOM/IN/80/DD8 (ATCC50212); test: L. donovani DD8 intracellular (THP-1) amastigote assay; format: cell-based; settings: Leishmania donovani
[4] = Broth microdilution MIC assay, ESKAPE pathogens; format: cell-based; settings: S. aureus, E. coli, K. pneumoniae, A. baumannii, P. aeruginosa; read-out: antibacterial MIC ESKAPE
[5] = tested on: ESKAPE pathogens S. aureus (ATCC 43300), E. coli (ATCC 25922), K. pneumoniae (ATCC 700603), A. baumannii (ATCC 19606), P. aeruginosa (ATCC 27853); test: Broth microdilution MIC assay, ESKAPE pathogens; format: cell-based
[6] = Caco-2 monolayer bidirectional permeability assay; settings: human, Caco-2, pH 7.4
[7] = Kinetic solubility determination by LC-UV; settings: room temperature, 1% DMSO
M. tuberculosis (H37Rv) [8] = test: M. tuberculosis H37Rv resazurin reduction microplate MIC assay, normoxic conditions; format: cell-based; settings: Mycobacterium tuberculosis, normoxia, read-out: antibacterial MIC M. tuberculosis normoxia
[9] = tested on: E. histolytica (HM1:IMSS); test: ATP-bioluminescence cell growth and survival assay, E. histolytica trophozoites; format: cell-based; settings: Entamoeba histolytica
[10] = tested on: C. difficile (630, ATCC BAA-1382); test: Broth microdilution MIC assay, C. difficile; format: cell-based, Clostridium difficile; settings: 630 ATCC BAA-1382, median MIC; for MIC: Clostridioides difficile, ATCCBAA1382, read-out: antibacterial MIC C. difficile
G. lamblia (WB line) = test: ATP-bioluminescence cell growth and survival assay, G. lamblia trophozoites; format: cell-based; settings: Giardia duodenalis
[11] = tested on: C. albicans (ATCC 90028) and C. neoformans (H99, ATCC 208821); test: Broth microdilution MIC assay, fungi; format: cell-based; settings: for MIC: Candida albicans, read-out: antifungal MIC
[12] = tested on: T. b. brucei (strain 427, BS427); test: 384-well resazurin viability assay, T. b. brucei bloodstream parasites; format: cell-based; settings: Trypanosoma brucei, BS427, n = 2
[13] = Mammalian cytotoxicity assay (resazurin), HEK293; settings: human, HEK293 cells
[14] = Mammalian cytotoxicity assay (resazurin), HepG2; settings: human, HepG2 cells
M. tuberculosis = settings: cited from earlier work
in vitro = settings: human
[15] = read-out: antiparasitic IC50 L. donovani
[16] = read-out: antiparasitic pIC50 ± SE L. donovani (converted)
[17] = PBS, pH 7.4, Solubility µM (PBS), PBS pH 7.4, 24 h
[18] = water, Solubility µM (H2O), 24 h
[19] = read-out: antiparasitic IC50 E. histolytica
[20] = read-out: antiparasitic pIC50 ± SE E. histolytica (converted)
[21] = read-out: antiparasitic IC50 G. lamblia
[22] = read-out: antiparasitic IC50 T. b. brucei
[23] = read-out: antiparasitic pIC50 ± SE T. b. brucei (converted)
[24] = read-out: antiparasitic pIC50 ± SE G. lamblia (converted)

Structure (SMILES) | fraction unbound at 0.5 h, 5 µM [2] | IC50 [3, 15] | IC50 [3, 16] | MIC [4] | antibacterial MIC ESKAPE [5] | solubility at 24 h [7, 17] | solubility at 24 h [7, 18] | MIC (M. tuberculosis (H37Rv) [8]) | IC50 [9, 19] | IC50 [9, 20] | MIC [10] | IC50 (G. lamblia (WB line); [21]) | MIC [11] | CC50 at 24 h [13] | CC50 at 24 h [14] | other results
O=c1c2nc([N+](=O)[O-])cn2ccn1Cc1ccc(OC(F)(F)F)cc1 [17c, 2-Nitro-7-(4-(trifluoromethoxy)benzyl)imidazo[1,2-a]pyrazin-8(7H)-one] | 0.02 | > 80 µM | > 79.4 µM | > 32 mg/L | > 32 mg/L | < 5 µM | < 5 µM |  |  |  |  |  |  |  |  | antibacterial MIC M. tuberculosis hypoxia (M. tuberculosis (H37Rv) [1]): 1.0 to 4.0 mg/L; Papp A→B at 2 h, 2 µM [6]: 250 nm/s; Papp A→B at 2 h, 2 μM [6]: > 200 nm/s; Papp B→A at 2 h, 2 µM [6]: 220 nm/s
O=c1c2nc([N+](=O)[O-])cn2ccn1Cc1ccc(F)cc1 [17e, 7-(4-Fluorobenzyl)-2-nitroimidazo[1,2-a]pyrazin-8(7H)-one] | 0.18 | > 80 µM | > 79.4 µM | > 32 mg/L | >32 mg/L | < 5 µM | < 5 µM |  |  |  |  |  |  |  |  | 
O=c1c2nc([N+](=O)[O-])cn2ccn1Cc1cccc(OC(F)(F)F)c1 [17f, 2-Nitro-7-(3-(trifluoromethoxy)benzyl)imidazo[1,2-a]pyrazin-8(7H)-one] | 0.01 | > 80 µM | > 79.4 µM | > 32 mg/L | > 32 mg/L | < 5 µM | < 5 µM |  |  |  |  |  |  |  |  | Papp A→B at 2 h, 2 µM [6]: 240 nm/s; Papp A→B at 2 h, 2 μM [6]: > 200 nm/s; Papp B→A at 2 h, 2 µM [6]: 240 nm/s
O=c1c2nc([N+](=O)[O-])cn2ccn1CCc1ccc(OC(F)(F)F)cc1 [17m, 2-Nitro-7-(4-(trifluoromethoxy)phenethyl)imidazo[1,2-a]pyrazin-8(7H)-one] |  | > 80 µM | > 79.4 µM | > 32 mg/L | >32 mg/L | < 5 µM | < 5 µM | 8 mg/L (≈ 21.7 µM) | > 50 µM | > 50.1 µM | 64 mg/L (≈ 174 µM) | 1.6 to 3.2 µM |  |  |  | 
Cc1ccc(CCn2ccn3cc([N+](=O)[O-])nc3c2=O)cc1 [17n, 7-(4-Methylphenethyl)-2-nitroimidazo[1,2-a]pyrazin-8(7H)-one] |  | > 80 µM | > 79.4 µM | > 32 mg/L | >32 mg/L | < 5 µM | < 5 µM | 4 mg/L (≈ 13.4 µM) | > 50 µM | > 50.1 µM | > 64 mg/L | 1.6 to 3.2 µM |  |  |  | antibacterial MIC C. difficile [10]: >64 mg/L
O=c1c2nccn2ccn1Cc1ccccc1 [20b, 7-Benzylimidazo[1,2-a]pyrazin-8(7H)-one] |  | > 80 µM | > 79.4 µM | > 32 mg/L |  |  |  | > 32 mg/L | > 25 µM | > 25.1 µM | > 64 mg/L | > 25 µM | > 32 mg/L | > 100 µM | > 100 µM | MIC (M. tuberculosis (H37Rv) [1]): > 32 mg/L; IC50 [12, 22]: > 40 µM; IC50 [12, 23]: > 39.8 µM; IC50 (G. lamblia (WB line); [24]): > 25.1 µM
O=c1c2nccn2ccn1Cc1ccc(F)cc1 [20c, 7-(4-Fluorobenzyl)imidazo[1,2-a]pyrazin-8(7H)-one] |  | > 80 µM | > 79.4 µM | > 32 mg/L |  |  |  | > 32 mg/L | > 50 µM | > 50.1 µM | > 64 mg/L | > 50 µM | > 32 mg/L | > 100 µM | > 100 µM | MIC (M. tuberculosis (H37Rv) [1]): > 32 mg/L; IC50 [12, 22]: > 40 µM; IC50 [12, 23]: > 39.8 µM; IC50 (G. lamblia (WB line); [24]): > 50.1 µM
Cc1cn2cc([N+](=O)[O-])nc2c(=O)n1Cc1ccc(OC(F)(F)F)cc1 [25f, 6-Methyl-2-nitro-7-(4-(trifluoromethoxy)benzyl)imidazo[1,2-a]pyrazin-8(7H)-one] | 0.02 | > 80 µM | > 79.4 µM | > 32 mg/L | >32 mg/L | < 5 µM | < 5 µM |  |  |  | > 64 mg/L |  | > 32 mg/L | > 100 µM | > 100 µM | antifungal MIC [11]: >32 mg/L; antibacterial MIC C. difficile [10]: >64 mg/L
Cc1cn2cc([N+](=O)[O-])nc2c(OCc2ccc(OC(F)(F)F)cc2)n1 [25g, 6-Methyl-2-nitro-8-((4-(trifluoromethoxy)benzyl)oxy)imidazo[1,2-a]pyrazine] |  | > 80 µM | > 79.4 µM | > 32 mg/L | >32 mg/L | < 5 µM | < 5 µM |  |  |  | > 64 mg/L |  | > 32 mg/L | > 100 µM | > 100 µM | antifungal MIC [11]: >32 mg/L; fraction unbound at 30 min, 5 μM ([2]; read-out: PPB (%)): < 0.01; antibacterial MIC C. difficile [10]: >64 mg/L
O=[N+]([O-])c1cn2c(n1)OC[C@H](OCc1ccc(OC(F)(F)F)cc1)C2 [(R)-PA-824 (8), (R)-PA-824] |  |  |  |  |  |  |  |  |  |  |  |  |  |  |  | activity against M. tuberculosis (M. tuberculosis): inactive
FC(F)(F)Oc1ccc(CO[C@@H]2COc3nccn3C2)cc1 [compound 9, S-des-nitro-PA-824] |  |  |  |  |  |  |  |  |  |  |  |  |  |  |  | MIC M. tuberculosis aerobic growth (M. tuberculosis; aerobic growth): > 160 µM; MIC M. tuberculosis anaerobic growth (M. tuberculosis; anaerobic growth): > 500 µM
CC(Cc1ccc(O)cc1)NCC(O)c1cc(O)cc(O)c1 (stereo not drawn) [fenoterol] |  |  |  |  |  |  |  |  |  |  |  |  |  |  |  | Papp A→B at 2 h, 2 µM (in vitro; Caco-2, pH 7.4): 2.7 nm/s; recovery at 2 h, 2 µM (in vitro; Caco-2, pH 7.4, mean recovery (%) A to B): 92%
O=[N+]([O-])c1cn2c(n1)OC[C@@H](OCc1ccc(OC(F)(F)F)cc1)C2 [pretomanid 6, pretomanid, reference compound] |  |  |  |  | > 32 mg/L |  |  |  |  |  |  |  |  | > 100 µM | > 100 µM | antifungal MIC [11]: > 32 mg/L; Papp A→B at 2 h, 2 µM (in vitro; Caco-2, pH 7.4): 290 nm/s; Papp B→A at 2 h, 2 µM (in vitro; Caco-2, pH 7.4): 220 nm/s; solubility (physchem): 11.3 ± 3.07 µM (≈ 4.06 µg/mL); solubility (physchem; pH 7.4): 10.6 ± 1.76 µM (≈ 3.81 µg/mL)
